Literature values in article PMC7894237 (Inflammation Research, 2021).
Read-outs that look alike come from different tables or passages of the source.

Tests used:
AAK1 [1] = conditions: compared with ruxolitinib and fedratinib
[2] = system: COVID-19 particle entry in human lung host cells; conditions: via inhibiting AAK1 and binding to GAK
severe cases of COVID-19 [3] = conditions: compared with the control group
AAK1 [4] = system: AAK1
[5] = system: patients with rheumatoid arthritis
COVID-19 patients = conditions: single 300 mg dose subcutaneously, ten patients
[6] = system: patients with multicentric Castleman disease
[7] = system: patients with COVID-19 who developed ARDS
[8] = not given; remark: listed apart in the source
[9] = system: patients with severe sepsis with hyper-inflammation; conditions: phase 3 randomized clinical trial
[10] = not given; remark: listed apart in the source
patients with COVID-19 [11] = conditions: nine patients
[12] = system: patient with severe COVID-19; conditions: anakinra started day 10 after hospital admission
sHLH/MAS patients = conditions: five adult patients, IV infusions up to 2400 mg/day
[13] = not given; remark: listed apart in the source
severe cases of COVID-19 [14] = system: severe cases of COVID-19
patients with COVID-19 [15] = system: patients with COVID-19
[16] = system: SARS-CoV1 replication in Vero cells
[17] = system: SARS-CoV1 replication in Vero cells; remark: listed apart in the source
[18] = system: patients with SARS infection; conditions: human, in vivo
patients with COVID-19 [19] = conditions: patient, died 13 days after hospitalization
influenza = conditions: pre-treatment, same dose of subtypes
malaria = conditions: deficient mice
[20] = of those who experienced a worsening

## CCS(=O)(=O)N1CC(CC#N)(n2cc(-c3ncnc4[nH]ccc34)cn2)C1 [baricitinib]
IL-6 and GM-CSF levels
  IL-6 and GM-CSF levels: can decrease
AAK1 [1]
  affinity to AAK1: more affinity to AAK1
[2]
  COVID-19 particle entry: can reduce the COVID-19 particle entry

## N#CC[C@H](C1CCCC1)n1cc(-c2ncnc3[nH]ccc23)cn1 [ruxolitinib]
Severe cases of COVID-19 [3]
  clinical improvement: faster clinical improvement

## C[C@@H]1CCN(C(=O)CC#N)C[C@@H]1N(C)c1ncnc2[nH]ccc12 [tofacitinib]
AAK1 [4]
  inhibition of AAK1: does not significantly inhibit
[5]
  CRP level and erythrocyte sedimentation rates: decreased CRP level and erythrocyte sedimentation rates (ESR)
  major side effects: increasing both low-density lipoprotein (LDL) and high-density lipoprotein (HDL) levels, and decreasing blood neutrophils

## canakinumab: high affinity, monoclonal anti-IL-1β antibody
COVID-19 patients
  tolerability: well tolerated, with no recorded injection site reactions, infection, or side-effects

## siltuximab: monoclonal antibody of IL-6
other
  half-life: 391 ± 101 h
[6]; 3/60 patients
  side effect: vomiting: 5%
[6]; 4/60 patients
  side effect: nausea: 7%
  side effect: neutropenia: 7%
[6]; 5/60 patients
  side effect: fatigue: 8%
[6]; 8/60 patients
  side effect: hypertension: 13%
[6]; 25/60 patients
  side effect: infection: 42%
[6]; 60 patients
  deaths: no deaths
[7]; 21 patients, follow-up 8 days
  patients with improvement in their condition with a reduced need for ventilation: 33%
  patients with worsening of their condition who required intubation: 24%
[7]; 21 patients, intravenous 700-1200 mg, follow-up 8 days
  patients with serum CRP levels reduced to within the normal range: 16 patients
[7]; [20]
  patients who developed a cerebrovascular event: one
  patients who died: one
Castleman’s disease; Castleman’s disease
  maximum tolerated dose: 100 mg twice weekly
Castleman’s disease; day 8 of siltuximab treatment
  median decrease in hepcidin levels: 47%
Castleman’s disease; every 3 weeks
  dose at which maximum suppression of CRP level was observed: 12 mg/kg

## C=C1CC[C@H](O)C/C1=C/C=C1\CCC[C@]2(C)[C@@H]([C@H](C)/C=C/[C@H](C)C(C)C)CC[C@@H]12 [vitamin D]
IL-1α, IL-1β, and TNF-α
  expression of pro-inflammatory markers: suppressing the expression of pro-inflammatory markers

## anakinra: recombinant IL-1R antagonist; blocks the binding of both IL-1α and IL-1β to IL-1R
[8]
  half-life: 4 to 6 h
[8]; subcutaneous route
  bioavailability: 95%
[8]; subcutaneous route, different chronic inflammatory conditions
  plasma concentrations: adequate and consistent plasma concentrations
[9]
  side effects: without markedly side effects
  therapeutic effect: beneficial
[10]; chronic anakinra therapy
  side effects observed: reaction at the site of injection and infection
[10]; specific IL-1β-targeting agents
  organ toxicities or gastrointestinal disturbances: no organ toxicities or gastrointestinal disturbances
Patients with COVID-19 [11]
  therapeutic effect: prevents mechanical ventilation and decreases serum inflammatory markers
  toxicity: no toxicity
[12]
  day on which patient was discharged from the ICU: 18 days
  day on which respiratory function improved: 13 days
sHLH/MAS patients
  therapeutic effect: reduced cytokine storm and subsequent clinical improvement

## tocilizumab: recombinant humanized anti-interleukin-6 receptor monoclonal antibody
[13]
  major side-effects: general infections, hepatotoxicity, hypertriglyceridemia, as well as diverticulitis
Severe cases of COVID-19 [14]; 10/19 patients
  patients whose lymphocyte number returned to normal values: 52.6%
Severe cases of COVID-19 [14]; 16/19 patients
  patients whose abnormal elevated C-reactive protein returned to normal values: 84.2%
Severe cases of COVID-19 [14]; 5 days after administration, 15/ 20 patients
  patients with lowered oxygen intake: 75%
Severe cases of COVID-19 [14]; all patients
  side effects: No obvious side effects
COVID-19 pneumonia; after tocilizumab therapy
  need for mechanical ventilation: did not require mechanical ventilation
COVID-19 pneumonia; single administration in combination with hydroxychloroquine
  treatment outcome: successfully treated
Patients with COVID-19 [15]
  patients in whom the high level of CRP was suppressed rapidly: 11/15
Patients with COVID-19 [15]; after tocilizumab therapy
  patients with decreased serum IL-6 levels: ten

## rilonacept
Patients with CAPS
  major side effects: reactions at injection-site, upper respiratory tract infections, sinusitis, cough, hypoesthesia, nausea, diarrhea, stomach discomfort, and urinary tract infections
Patients with CAPS; week six, pre-treatment baseline value = 22 mg/L
  serum CRP level: 2 mg/L

## IFN-α
[16]
  effect on SARS-CoV1 replication: inhibited synergistically
[17]
  sensitivity of SARS-CoV1 to the interferon: only weakly sensitive
[18]
  therapeutic effect: inconclusive

B1: sarilumab: human monoclonal antibody directed against the alpha subunit of the IL-6R (antibody, chains of the INN, looked up, V domains shown)
VH: EVQLVESGGGLVQPGRSLRLSCAASRFTFDDYAMHWVRQAPGKGLEWVSGISWNSGRIGYADSVKGRFTISRDNAENSLFLQMNGLRAEDTALYYCAKGRDSFDIWGQGTMVTVSS
VL: DIQMTQSPSSVSASVGDRVTITCRASQGISSWLAWYQQKPGKAPKLLIYGASSLESGVPSRFSGSGSGTDFTLTISSLQPEDFASYYCQQANSFPYTFGQGTKLEIK
Patients with COVID-19 [19]
  patients with no improvement in lung function who died: one

B2: IFN-α5: type I IFN subtype (protein, UniProt P01569 22-189, looked up)
Interferon alpha-5: LGCDLPQTHSLSNRRTLMIMAQMGRISPFSCLKDRHDFGFPQEEFDGNQFQKAQAISVLHEMIQQTFNLFSTKDSSATWDETLLDKFYTELYQQLNDLEACMMQEVGVEDTPLMNVDSILTVRKYFQRITLYLTEKKYSPCAWEVVRAEIMRSFSLSANLQERLRRKE
influenza
  effect on viral load: more suppressive effects on the viral load than IFN-α1

B3: interferon-gamma: Type II IFN (protein, UniProt P01579 24-161, looked up)
Interferon gamma: QDPYVKEAENLKKYFNAGHSDVADNGTLFLGILKNWKEESDRKIMQSQIVSFYFKLFKNFKDDQSIQKSVETIKEDMNVKFFNSNKKKRDDFEKLTNYSVTDLNVQRKAIHELIQVMAELSPAAKTGKRKRSQMLFRG
[17]
  sensitivity of SARS-CoV1 to the interferon: only weakly sensitive

B4: IFN-α6: type I IFN subtype (protein, UniProt P05013 21-189, looked up)
Interferon alpha-6: SLDCDLPQTHSLGHRRTMMLLAQMRRISLFSCLKDRHDFRFPQEEFDGNQFQKAEAISVLHEVIQQTFNLFSTKDSSVAWDERLLDKLYTELYQQLNDLEACVMQEVWVGGTPLMNEDSILAVRKYFQRITLYLTEKKYSPCAWEVVRAEIMRSFSSSRNLQERLRRKE
influenza
  effect on viral load: more suppressive effects on the viral load than IFN-α1

B5: recombinant soluble IL-6R: recombinant soluble IL-6R, mimic the trans-signaling of IL-6 (protein, UniProt P08887 20-365, looked up)
extracellular domain: LAPRRCPAQEVARGVLTSLPGDSVTLTCPGVEPEDNATVHWVLRKPAAGSHPSRWAGMGRRLLLRSVQLHDSGNYSCYRAGRPAGTVHLLVDVPPEEPQLSCFRKSPLSNVVCEWGPRSTPSLTTKAVLLVRKFQNSPAEDFQEPCQYSQESQKFSCQLAVPEGDSSFYIVSMCVASSVGSKFSKTQTFQGCGILQPDPPANITVTAVARNPRWLSVTWQDPHSWNSSFYRLRFELRYRAERSKTFTTWMVKDLQHHCVIHDAWSGLRHVVQLRAQEEFGQGEWSEWSPEAMGTPWTESRSPPAENEVSTPMQALTTNKDDDNILFRDSANATSLPVQDSSSVPLP
modifications: extracellular domain
malaria
  outcome of malaria: restores the lethal outcome of malaria
